Data: article PMC10244169, “Psychedelics promote plasticity by directly binding to BDNF receptor TrkB” (Nature Neuroscience, 2023)
Counter-ions that a name gives are not always drawn. Like-named read-outs stand apart in the source and are kept apart here.

What was measured:
TrkB [1] = biological target: T1, TrkB (Rattus norvegicus, UniProt Q63604); assay: biochemical; type: binding; conditions: for Bmax (specific binding with Hill slope, best-fit) / h (Hill slope, best-fit): ext fig 1f, competition curve, n=5; for displacement of ^3H-LSD from TrkB: 1 nM to 10 µM of drug
T1 construct: expressed in transfected cells; host or cells: HEK293T
T1 sequence (Q63604 32-821): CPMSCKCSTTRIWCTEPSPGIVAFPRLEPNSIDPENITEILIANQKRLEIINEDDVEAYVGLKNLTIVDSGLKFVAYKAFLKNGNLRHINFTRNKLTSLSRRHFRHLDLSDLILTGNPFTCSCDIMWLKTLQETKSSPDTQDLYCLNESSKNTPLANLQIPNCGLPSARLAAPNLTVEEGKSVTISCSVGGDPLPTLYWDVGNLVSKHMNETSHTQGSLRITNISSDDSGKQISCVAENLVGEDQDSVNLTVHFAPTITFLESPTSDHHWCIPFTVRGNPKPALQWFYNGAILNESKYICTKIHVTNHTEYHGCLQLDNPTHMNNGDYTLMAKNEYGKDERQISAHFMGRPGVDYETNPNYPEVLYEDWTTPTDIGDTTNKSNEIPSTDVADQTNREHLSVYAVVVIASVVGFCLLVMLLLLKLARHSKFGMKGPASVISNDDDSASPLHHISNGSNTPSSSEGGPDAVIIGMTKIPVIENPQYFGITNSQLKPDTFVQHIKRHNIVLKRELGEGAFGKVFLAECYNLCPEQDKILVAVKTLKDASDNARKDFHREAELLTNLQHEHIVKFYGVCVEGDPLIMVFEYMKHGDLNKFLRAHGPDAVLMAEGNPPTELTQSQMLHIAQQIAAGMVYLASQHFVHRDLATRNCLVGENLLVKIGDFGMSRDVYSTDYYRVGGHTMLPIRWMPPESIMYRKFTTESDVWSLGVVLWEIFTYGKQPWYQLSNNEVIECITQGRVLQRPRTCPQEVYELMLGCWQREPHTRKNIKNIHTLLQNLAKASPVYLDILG

[2] = system: dendritic arbor complexity of neuronal cultures; assay: Dendritogenesis (Sholl analysis) in neuronal cultures (WT and Y433F^+/−); type: cell-based, mouse; conditions: for Sholl analysis, Mean at distance from soma: fig 6j
Procedure: In a separate set of experiments to study the effects of extracellular BDNF and 5-HT2A activation, cultures were also pretreated for 10 min with TrkB.FC (200 ng ml^−1) or M100907 (100 nM), respectively. Similar to treatment with the psychedelics, TrkB.FC and M100907 pretreatments were administered in cumulative doses and remained in the medium for the rest of the experiment. At DIV7, neurons were pre-incubated for 1 h with […] MgCl2 to prevent excitotoxicity, then neurons were transfected for the heterologous expression of mCherry. To minimize any possible interference of the transfection protocol upon the drug effect, transfection was done in the morning while treatment with psychedelics was always added in the evening. Twenty-four hours after transfection, neurons were fixed with 4% PFA for 20 min at room temperature, washed in PBS-T, blocked for 30 min with 3% BSA in PBS-T and incubated with chicken anti-MAP2 (Abcam, ab5392; 1:5,000, 1 h, room temperature). Then, coverslips were washed in PBS-T and incubated with Alexa Fluor 647-conjugated antibody goat anti-chicken (Invitrogen, A-21449; 1:1,000, 1 h, room temperature). Next, coverslips were washed in PBS-T and MilliQ water, and mounted in Dako fluorescence mounting medium (Agilent, S302380-2). Ten optical sections with a Z-step of 1.3 μm were acquired using a Zeiss LSM 710 confocal microscope with a LCI Plan/Neofluar 25×/0.8 lmm Korr DIC M27 objective. In the mCherry channel, the center of the soma was manually assigned and the number of dendritic intersections at fixed distances (every 5 μm) from the soma was automatically counted using the Sholl analysis plugin of ImageJ.

TrkB (WT) dimerization = biological target: T2, TrkB (WT) dimerization (Rattus norvegicus, UniProt Q63604); assay: Split-luciferase PCA of TrkB dimerization in N2a cells; type: cell-based; conditions: for Group mean (Mean 2; Vehicle:Vehicle = 100), fig 4e: n=48
T2 construct: expressed in transfected cells; host or cells: N2a
T2 sequence (Q63604 32-821): as above
T2 sequence (Q63604 32-821): as above
Procedure: Ketanserin, M100907 and TRKB.FC were added to the media 10 min before treatment. The PCA method was performed as previously described[11],[75],[76]. Split humanized Gaussia princeps luciferase (hGLuc) was cloned on the C-terminus of the reporter proteins TrkB (WT and Y433F) and lipid raft Fyn. If the reporter proteins that carry complementary halves of the luciferase interact, the enzyme can refold in its functional conformation and, upon addition of its substrate, produce luminescence proportionally to the amount of reporter proteins interacting at a given time. N2a cells were seeded in 96-well plates with opaque walls and transparent bottom (PerkinElmer, ViewPlate 96). Cells were transfected with Lipofectamine 2000 according to the manufacturer’s instructions 24 h post-plating with the PCA pair plasmids: phGLuc(1C)-TrkB(WT) or the mutant phGLuc(1C)-TrkB(Y433F) and phGLuc(2 C)-TrkB(WT) for the dimerization experiments; phGLuc(1C)-lipid raft Fyn and phGLuc(2C)-TrkB(WT) or phGLuc(2C)-TrkB(Y433F) for the lipid raft localization experiments. Forty-eight hours post transfection, cells were treated (40 min, 37 °C) in phenol red-free Dulbecco’s modified Eagle medium without serum. […] The PCA signal was detected with the substrate for the luciferase, native coelenterazine, which was injected into each well directly in the plate reader at a final concentration of […].

[3] = system: spine density of neuronal cultures; assay: Spinogenesis in mature neuronal cultures (WT and Y433F^+/−); type: cell-based, mouse; parameters: 6d: Mean (spinogenesis, spine density) / 6e: Mean (spinogenesis, spine density): unit not given here
Procedure: Spinogenesis experiments were performed similarly to previous studies[12],[13] with modifications. […] In a separate set of experiments to study the effects of extracellular BDNF and 5-HT2A activation, cultures were also pretreated for 10 min with TrkB.FC (200 ng ml^−1) or M100907 (100 nM), respectively. TrkB.FC and M100907 remained in the medium for the rest of the experiment. Twenty-four hours later, coverslips were fixed with 4% PFA, washed with PBS, incubated with blocking buffer (0.1% Triton X-100, 0.05% Tween-20, 10% normal donkey serum, 1% BSA and 0.1% gelatin in PBS) for 1 h at room temperature and then overnight with rabbit anti-MAP2 (Invitrogen, PA5-17646; 1:100) primary antibody at 4 °C. After washing with PBS, coverslips were incubated with CF568-conjugated donkey anti-rabbit (Biotium, 20098; 1:500) for 1 h at room temperature. Another round of PBS washes was followed by incubation with Alexa Fluor 647-conjugated phalloidin (Invitrogen, A22287; 1:40) overnight at 4 °C. Next, coverslips were briefly washed in phosphate buffer (PB) and mounted on slides with ProLong Glass Antifade Mountant (Invitrogen, P36982). We used a Zeiss LSM 880 confocal microscope with an AiryScan GaAsP detector equipped with a PlanApochromat 63×/1.4 NA objective. We used the BP 495–550 + LP 570 AiryScan filter and Zen Black in super-resolution mode for image acquisition. Pinhole size was adapted accordingly, and frame size was set to optimal. Sensors were set to continuous adjustment across the imaging sessions to ensure optimal sensor alignment and signal detection. Raw data were processed into AiryScan images with the autofilter mode on using Zen Blue. Finally, image analysis was performed in ImageJ by experimenters blinded for treatment and genotype. Spines were quantified in 15-µm-long dendrite sections.

eGFP-tagged TrkB (WT) = biological target: T3, eGFP-tagged TrkB (WT) (Rattus norvegicus, UniProt Q63604); assay: Microscale thermophoresis (MST) in HEK293T lysates; type: binding; conditions: native (WT) TrkB
T3 construct: expressed in transfected cells; host or cells: HEK293T
T3 sequence (Q63604 32-821): as above
Procedure: MST experiments were performed using the Monolith NT.115 (Blue/Red) instrument (NanoTemper Technologies). Lysates of HEK293T cells expressing GFP-tagged TrkB (WT, Y433F, TrkA.TM) were lysed, vortexed, sonicated and centrifuged 24 h after transient transfection and used as a source of fluorescently labeled TrkB, similarly to previously described protocols[11],[45]–[47]. The advantage of this approach is the possibility of studying the proteins in close-to-native conditions. However, the presence of other proteins, lipids, nucleic acids and other components of crude cell lysates can alter the diffusion of biomolecules and therefore binding affinities. High viscosity and background signal typically results in the affinity values being orders of magnitude […] than those of more traditional binding assays. […] The measurements were performed in premium coated capillaries (NanoTemper Technologies, MO-K025) using a LED source with 470 nm and 50% infrared-laser power at 25 °C. Analysis was performed using MO Affinity Analysis 2.3. Results were fitted to specific binding with Hill slope equations from GraphPad Prism 9.2.

TrkB [4] = biological target: T1, TrkB; assay: Biotin-labeled BDNF binding to immunoprecipitated TrkB; conditions: ext fig 1e, n=4
Procedure: Binding assays were performed as previously described with minor modifications. […] Samples from mouse embryo (E18) brains were also lysed, vortexed, sonicated and centrifuged for binding assays. Plates were then washed with PBS. […] For the competition binding assays with biotinylated R,R-HNK, the amino-biotinylation of R,R-HNK was performed using a commercial kit (Thermo Scientific, EZ-Link NHS-PEG4 Biotinylation Kit, 21455) and the reaction monitored by MS. A mixture of biotinylated R,R-HNK (10 µM) and unlabeled compounds (1 pM to 10 µM) in PBS was added to the 96-well plates containing the immunoprecipitated TrkB and incubated for 1 h at room temperature. […] Luminescence was determined via streptavidin conjugated with horseradish peroxidase (HRP; Thermo Fisher Scientific, 21126; 1:5,000, 1 h at room temperature) in reaction with the Pierce ECL substrate (Thermo Fisher Scientific, 32106). Luminescence from blank wells that contained all reagents but the sample lysates was used to determine nonspecific binding. To obtain the binding curves, results from binding assays were fitted to the equation of specific binding with Hill slope from GraphPad Prism 9.2. To calculate koff values, results were fitted to the equation of dissociation of one phase exponential decay from GraphPad Prism 9.2.

[5] = TrkB.FC 200 ng ml^−1 or M100907 100 nM
[6] = treatment alone (other factor Vehicle)

## N[C@@]1(c2ccccc2Cl)CCC[C@@H](O)C1=O [R,R-HNK, 2R,6R-hydroxynorketamine]
TrkB [1]; displacement of ^3H-LSD, read-out: Ki
  Ki: 166 ± 21.1 nM
TrkB [1]
  Bmax (specific binding with Hill slope, best-fit): 107.6
  h (Hill slope, best-fit): -0.8819

## CN(C)CCCN1c2ccccc2Sc2ccc(Cl)cc21 [chlorpromazine]
TrkB [1]
  displacement of ^3H-LSD from TrkB: fail to displace ^3H-LSD
TrkB [1]; ext fig 1h
  Fit status, one phase exponential decay: Interrupted
  K (one phase exponential decay, best-fit): 6.169
  Plateau (one phase exponential decay, best-fit): 142318
  Span (one phase exponential decay, best-fit): -142224

## CN1C(=O)CN=C(c2ccccc2)c2cc(Cl)ccc21 [diazepam]
TrkB [1]
  displacement of ^3H-LSD from TrkB: fail to displace ^3H-LSD
TrkB [1]; ext fig 1h
  Fit status, one phase exponential decay: Not converged

## CNC1(c2ccccc2Cl)CCCCC1=O (centres unmarked) [ketamine, Ketamine hydrochloride]
TrkB [1]
  Ki: 20800 ± 8860 nM
  Bmax (specific binding with Hill slope, best-fit): 98.59
  h (Hill slope, best-fit): -0.5468

## TrkB.FC: TrkB receptor bodies that sequester extracellular BDNF
[2]; [5]
  effect of pretreatment on LSD effects on dendritogenesis: prevented LSD effects on dendritogenesis
[2]; fig 6i, Bonferroni's multiple comparisons test
  dendritic arbor complexity, Mean Diff. (Vehicle:vehicle vs. group): 9.033
[2]; fig 6i, treatment:pretreatment groups, Vehicle:vehicle mean 69.72
  dendritic arbor complexity, group mean (Mean 2): 60.69
[2]; distance from soma 10 µm
  Sholl analysis, Mean at distance from soma: 6.276
[2]; distance from soma 15 µm
  Sholl analysis, Mean at distance from soma: 6.586
[2]; distance from soma 20 µm
  Sholl analysis, Mean at distance from soma: 5.414
[2]; distance from soma 25 µm
  Sholl analysis, Mean at distance from soma: 4.966
[2]; distance from soma 30 µm
  Sholl analysis, Mean at distance from soma: 4.621
[2]; distance from soma 35 µm
  Sholl analysis, Mean at distance from soma: 3.655
[2]; distance from soma 40 µm
  Sholl analysis, Mean at distance from soma: 3.414
[2]; distance from soma 45 µm
  Sholl analysis, Mean at distance from soma: 2.655
[2]; distance from soma 50 µm
  Sholl analysis, Mean at distance from soma: 2.724
[2]; distance from soma 55 µm
  Sholl analysis, Mean at distance from soma: 2.759
[2]; distance from soma 60 µm
  Sholl analysis, Mean at distance from soma: 2.2069
[2]; distance from soma 65 µm
  Sholl analysis, Mean at distance from soma: 2.241
[2]; distance from soma 70 µm
  Sholl analysis, Mean at distance from soma: 2.172
[2]; distance from soma 75 µm
  Sholl analysis, Mean at distance from soma: 1.897
[2]; distance from soma 80 µm
  Sholl analysis, Mean at distance from soma: 1.862
[2]; distance from soma 85 µm
  Sholl analysis, Mean at distance from soma: 2.034
[2]; distance from soma 90 µm
  Sholl analysis, Mean at distance from soma: 1.931
[2]; distance from soma 95 µm
  Sholl analysis, Mean at distance from soma: 1.621
[2]; distance from soma 100 µm
  Sholl analysis, Mean at distance from soma: 1.655
TrkB (WT) dimerization; ketanserin 100 nM, M100907 100 nM or TrkB.FC 200 ng ml^−1, 10 min before
  effect of pretreatment on LSD- and BDNF-induced TrkB dimerization: prevents the effects of LSD and BDNF on TrkB dimerization
TrkB (WT) dimerization; [6]
  Group mean (Mean 2; Vehicle:Vehicle = 100), fig 4e: 100
[3]; [5]
  effect of pretreatment on spinogenic effect of LSD: prevented the spinogenic effect of LSD
[3]; substance alone (with vehicle)
  6e: Mean Diff. (Vehicle:Vehicle vs. treatment), Bonferroni's multiple comparisons test: -0.45
[3]; substance alone (with vehicle), Vehicle:Vehicle mean 7.05
  6e: Mean (spinogenesis, spine density): 7.5

B1: BDNF: Brain-derived neurotrophic factor (protein, UniProt P23560 19-247, looked up)
Neurotrophic factor BDNF …: APMKEANIRGQGGLAYPGVRTHGTLESVNGPKAGSRGLTSLADTFEHVIEELLDEDQKVRPNEENNKDADLYTSRVMLSSQVPLEPPLLFLLEEYKNYLDAANMSMRVRRHSDPARRGELSVCDSISEWVTAADKKTAVDMSGGTVTVLEKVPVSKGQLKQYFYETKCNPMGYTKEGCRGIDKRHWNSQCRTTQSYVRALTMDSKKRIGWRFIRIDTSCVCTLTIKRGR
eGFP-tagged TrkB (WT)
  binding by MST: induces a shift in fluorescence
TrkB [4]
  Bmax (specific binding with Hill slope, best-fit): 7.546
  h (Hill slope, best-fit): 0.8134
TrkB [4]; read-out: Kd (specific binding with Hill slope, best-fit)
  Kd: 1220 nM
TrkB (WT) dimerization; BDNF 0.1ng/ml, Control (no LSD), n=8
  Group mean (Mean 2; Control:Vehicle = 100), fig 4f: 147.4
TrkB (WT) dimerization; [6]
  Group mean (Mean 2; Vehicle:Vehicle = 100), fig 4e: 144.1
TrkB (WT) dimerization; with TrkB.FC
  Group mean (Mean 2; Vehicle:Vehicle = 100), fig 4e: 103
